From patent US20180044305A1, “3-SUBSTITUTED 1,3,4-OXADIAZOLE AND THIADIAZOLE COMPOUNDS AS IMMUNOMODULATORS” (AURIGENE DISCOVERY TECHNOLOGIES LIMITED, priority 2015, published 2018)

biological target: T1, Recombinant mouse PD-L1 (Mus musculus, UniProt Q9EP73); assay: Rescue of mouse splenocyte proliferation in the presence of recombinant PD-L1 (CFSE proliferation assay); format: cell-based; settings: compound at 100 nM; CFSE-labelled mouse splenocytes + anti-CD3/CD28 + PD-L1, 72 h; normalised to stimulated splenocyte proliferation as 100%
T1 construct: Fc (Fc chimera); purchased R&D Systems 1019-B7-100
Experimental: Example 3: Rescue of Mouse Splenocyte Proliferation in the Presence of Recombinant PD-L1
Recombinant mouse PD-L1 (rm-PDL-1, cat no: 1019-B7-100; R&D Systems) were used as the source of PD-L1.
Mouse splenocytes harvested from 6-8 weeks old C57 BL6 mice; RPMI 1640 (GIBCO, Cat #11875); DMEM with high glucose (GIBCO, Cat #D6429); Fetal Bovine Serum [Hyclone, Cat #SH30071.03]; Penicillin (10000 unit/mL)-Streptomycin(10,000 μg/mL) Liquid (GIBCO, Cat #15140-122); MEM Sodium Pyruvate solution 100 mM (100×), Liquid (GIBCO, Cat #11360); Nonessential amino acid (GIBCO, Cat #11140); L-Glutamine (GIBCO, Cat #25030); Anti-CD3 antibody (eBiosciences—16-0032); Anti-CD28 antibody (eBiosciences—16-0281); ACK lysis buffer (1 mL) (GIBCO, Cat #-A10492); Histopaque (density—1.083 gm/mL) (SIGMA 10831); Trypan blue solution (SIGMA-T8154); 2 mL Norm Ject Luer Lock syringe-(Sigma 2014-12); 40 µm nylon cell strainer (BD FALCON 35230); Hemacytometer (Bright line-SIGMA Z359629); FACS Buffer (PBS/0.1% BSA): Phosphate Buffered Saline (PBS) pH 7.2 (HiMedia TS1006) with 0.1% Bovine Serum Albumin (BSA) (SIGMA A7050) and sodium azide (SIGMA 08591); 5 mM stock solution of CFSE: CFSE stock solution was prepared by diluting lyophilized CFSE with […] of Dimethyl sulfoxide (DMSO C2H6SO, SIGMA-D-5879) and aliquoted in to tubes for further use. Working concentrations were titrated from […] to 1 μM. (eBioscience—650850-85); 0.05% Trypsin and 0.02% EDTA (SIGMA 59417C); 96-well format ELISA plates (Corning CLS3390); BD FACS caliber (E6016); Recombinant mouse B7-H1/PDL1 Fc Chimera, (rm-PD-L1 cat no: 1019-B7-100).
Splenocytes harvested in a 50 mL falcon tube by mashing mouse spleen in a 40 µm cell strainer were further treated with 1 mL ACK lysis buffer for 5 min at room temperature. After washing with 9 mL of RPMI complete media, cells were re-suspended in 3 mL of 1×PBS in a 15 mL tube. 3 mL of Histopaque was added carefully to the bottom of the tube without disturbing overlaying splenocyte suspension. After centrifuging at 800×g for 20 min at room temperature, the opaque layer of splenocytes was collected carefully without disturbing/mixing the layers. Splenocytes were washed twice with cold 1×PBS followed by total cell counting using Trypan Blue exclusion method and used further for cell based assays.
Splenocytes were cultured in RPMI complete media (RPMI+10% fetal bovine serum+1 mM sodium pyruvate+10,000 units/mL penicillin and […] streptomycin) and maintained in a CO2 incubator with 5% CO2 at 37° C.
CFSE is a dye that passively diffuses into cells and binds to intracellular proteins. 1×10^6 cells/mL of harvested splenocytes were treated with […] of CFSE in pre-warmed 1×PBS/0.1% BSA solution for 10 min at 37° C. Excess CFSE was quenched using 5 volumes of ice-cold culture media to the cells and incubated on ice for 5 min. CFSE labelled splenocytes were further given three washes with ice cold complete RPMI media. […] Cells were harvested and washed thrice with ice cold FACS buffer and % proliferation was analysed by flow cytometry with 488 nm excitation and 521 nm emission filters.
Percent splenocyte proliferation was analysed using cell quest FACS program and percent rescue of splenocyte proliferation by compound was estimated after deduction of % background proliferation value and normalising to % stimulated splenocyte proliferation (positive control) as 100%. […]

T1 sequence (Q9EP73 with tags, fused parts or gaps limits assumed): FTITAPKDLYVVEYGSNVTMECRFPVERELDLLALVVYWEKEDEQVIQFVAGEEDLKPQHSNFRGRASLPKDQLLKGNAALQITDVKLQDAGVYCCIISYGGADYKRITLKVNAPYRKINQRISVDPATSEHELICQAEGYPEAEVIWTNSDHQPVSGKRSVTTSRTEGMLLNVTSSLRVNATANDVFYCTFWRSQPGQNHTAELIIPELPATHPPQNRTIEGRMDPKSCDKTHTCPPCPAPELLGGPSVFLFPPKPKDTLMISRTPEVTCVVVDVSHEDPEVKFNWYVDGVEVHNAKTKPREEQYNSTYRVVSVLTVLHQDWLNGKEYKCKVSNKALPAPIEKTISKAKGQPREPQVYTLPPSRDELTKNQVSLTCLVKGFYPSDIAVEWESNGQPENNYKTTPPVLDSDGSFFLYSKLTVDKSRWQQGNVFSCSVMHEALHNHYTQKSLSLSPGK

SMILES	Percent rescue of splenocyte proliferation (@100 nM) [%]
CC(O)[C@H](NC(=O)N[C@H](c1nnc(-c2ccco2)o1)C(C)C)C(=O)O (some centres unmarked) [Compound 7]	28
COc1ccccc1-c1nnc([C@H](CC(N)=O)NC(=O)N[C@@H](CCCCN)C(=O)O)o1 [Compound 11]	60

Other lines, results leading:

Percent rescue of splenocyte proliferation (@100 nM) [%]	SMILES
15	COc1ccccc1-c1nnc([C@H](CC(N)=O)NC(=O)N[C@@H](CCSC)C(=O)O)o1 [Compound 12]
63	CC(O)[C@H](NC(=O)N[C@@H](CC(N)=O)c1nnc(-c2cnccn2)o1)C(=O)O (some centres unmarked) [Compound 13]
7	COc1ccccc1-c1nnc([C@H](CC(N)=O)NC(=O)N[C@H](C(=O)O)C(C)O)o1 (some centres unmarked) [Compound 16]
